Measured values as given in US6559158B1, “Use of methylnaltrexone and related compounds to treat chronic opioid use side affects” (UR Labs, Inc., priority 1997, dated 2003).
“Also recorded” adds a separate entry of the source. Like-named read-outs stand apart in the source and are kept apart here.

What was measured:
[1] = Absorption after oral administration of non-enteric coated compound; format: in vivo
Description: Methylnaltrexone is rapidly absorbed after oral administration from the stomach and bowel. Initial plasma levels of the drug are seen within 5-10 minutes of the administration of non-enteric coated compound. Addition of an enteric coating which prevents gastric absorption is associated with lower plasma levels of the methylnaltrexone.

[2] = test system: morphine-induced changes in oral-cecal transit time; assay: Example 4: morphine-induced delay of oral-cecal transit time in subjects given opioids non-chronically; format: in vivo, human; conditions: 0.45 mg/kg methylnaltrexone plus 0.05 mg/kg morphine
Description: Sessions were separated by at least 1 week. Each session lasted approximately 7 hours, and the subjects received one of three injections: (1) placebo plus placebo, (2) placebo plus 0.05 mg/kg morphine, or (3) 0.45 mg/kg methylnaltrexone plus 0.05 mg/kg morphine. Injection I was given at the first session, and the subjects were blinded to the medication. Injections 2 and 3 were given in a random order, and the subjects and observers were blinded to the medication. Injection assignments were prepared by random selection on a computer and were sealed in envelopes.
After completion of the above three injections, we asked six of the subjects, beginning with those who had completed the study last, to return for a fourth injection (0.45 mg/kg methylnaltrexone plus 0.1 mg/kg morphine). This was done to evaluate the effects of methylnaltrexone with a higher does of morphine.
Results of the hydrogen breath test after different injections were analyzed with the use of the Wilcoxon matched-pairs signed-rank test, with p<0.05 considered to be statistically significant.

[3] = test system: normal volunteers; conditions: eight normal volunteers, cited from earlier work
[4] = Example 2: plasma levels and urinary excretion of methylnaltrexone; format: in vivo, human; conditions: for Peak plasma level: iv, mean±SD
Description: After each test drug administration, seven blood samples (5 ml each) were obtained at time 0, 5, 30 min, and 1, 2, 4, 8 h, and three urine samples were collected at time 0, 2, and 4 h. Plasma and urine methylnaltrexone levels were determined by an HPLC technique with a detection limit of 2 ng/ml (Kim et al., 1989; Yuan et al., Clin. Pharmacol Ther., 59:469-475 (1996); both herein incorporated by reference). […] Subjects' bowel movements were witnessed and recorded by a research nurse.
Blood and Urine Sampling and Analysis were Performed as in Example 1.

[5] = test system: chronic methadone subjects; assay: Example 1: side effects, abdominal cramping and central opioid withdrawal; format: in vivo, human
Description: (§1) Vital signs were obtained at 0, 5, 10, 30, 60, 90 and 120 min after each test drug administration. For oral-cecal transit time measurement, 10 g lactulose (Solvay Pharmaceuticals, Marietta, Ga.) was administered orally at 09:00 h of Day 1, Day 5 and Day 8 for Subject 1; of Day 1 for Subject 2, and of Day 1, Day 3 and Day 5 for Subjects 3 and 4. Illicit drug use was monitored by random urine drug screens.
To evaluate possible opioid withdrawal with methylnaltrexone, subjects were asked to rate on a 5-point scale from 0 (not at all) to 4 (extremely) an […] checklist Withdrawal Scale (Fraser et al., J Pharmacol Exp. Ther., 133:371-387 (1961); Jasinski, Drug Addiction J., 197-258 (1977); both herein incorporated by reference). Items to be rated were: muscle cramps, flushing, painful joints, yawning, restless, watery eyes, runny nose, chills or gooseflesh, sick to stomach, sneezing, abdominal cramps, irritable, backache, tense and jittery, sweating, depressed/sad, sleepy, shaky (hands), hot or cold flashes, and bothered by noises. The ratings for individual items were summed for a total score for each scale. The total scores were compared before and after methylnaltrexone administration to see if there was a significant difference.

[6] = test system: chronic methadone subjects with methadone-induced constipation; assay: Example 2: double-blind placebo-controlled trial of intravenous methylnaltrexone, laxation response; conditions: for methylnaltrexone dose received (infusion stopped at bowel movement): mean±SD, range 0.01-0.37
[7] = test system: constipated methadone maintained patients; assay: Example 3: oral methylnaltrexone, laxation response; format: in vivo, human; conditions: for subjects who had a bowel movement: 4 subjects; for time to bowel movement after oral compound: mean±SD
Description: Since oral medication is a safer and more convenient way to deliver drugs than is intravenous administration, the efficacy of oral MNTX in relieving constipation in methadone maintained patients was evaluated. Twelve constipated adults (≦2 stool/week) were enrolled. Their daily methadone dose was 73.3±16.2 mg (41-100 mg), mean±SD (range). On day 1 at 9AM, subjects ingested 10 g lactulose (Solvay Pharmaceuticals) to assess oral-cecal transit time as described above, and a placebo capsule. On day 2 at 9AM, subjects again received lactulose, and a capsule containing methylnaltrexone (Mallinckrodt). Ascending oral methylnaltrexone doses (0.3, 1.0, and 3,0 mg/kg) were given to 3 groups of 4 subjects per group. Drug administrations were single-blinded to the subject. Laxation response and potential opioid withdrawal were recorded and blood samples were collected.

[8] = test system: chronic methadone subjects; assay: Example 1: oral-cecal transit time (lactulose hydrogen breath test); format: in vivo, human; conditions: 150 min after placebo
Description: as §1
The oral-cecal transit time was assessed by the pulmonary hydrogen (H2) measurement technique, which measures pulmonary H2 that is produced when unabsorbed lactulose is fermented by colonic bacteria and excreted in the breath. This H2 production is reflected by a concomitant increase in breath H2 excretion. […] Dis. Sci., 32:829-832 (1987)). Hydrogen breath tests were conducted every 15 min until oral-cecal transit time was determined.

[9] = test system: chronic methadone subjects; assay: Example 2: side effects, vital signs and opioid withdrawal; format: in vivo, human
Description: Vital signs were obtained at 0, 5, 10, 30, 60, 90 and 120 min after each test drug administration. Illicit drug use was monitored by random urine drug screens.
To evaluate possible opioid withdrawal with methylnaltrexone, before and 10 min after the completion of test drug administration, subjects were asked to complete an objective checklist of withdrawal symptoms modified from Fraser et al. (J. Pharmacol Exp. Ther., 133:371-387 (1961)) and Jasinski (Drug Addiction J., 197-258 (1977)). Items rated (none, mild, moderate, severe) were yawning, lacrimation (excessive tearing), rhinorrhea (nasal discharge), perspiration, tremor, piloerection (goosebumps), and restlessness. The ratings for individual items were translated to a 0-3 scale and summed to give a total symptom score. The total scores before and after test drug administrations were compared between the groups. Potential opioid withdrawal symptoms were also monitored by an investigator throughout the study.

[10] = test system: normal volunteers; conditions: 0.45 mg/kg iv, cited from earlier work
[11] = Subjects 3 and 4, 0.05-0.15 mg/kg iv twice daily, 4 days
[12] = iv methylnaltrexone, #1 0.45 mg/kg bid, #2 0.45 mg/kg, #3 and #4 0.05-0.15 mg/kg bid, iv methylnaltrexone 0.45 mg/kg
[13] = iv methylnaltrexone, #1 0.45 mg/kg bid, #2 0.45 mg/kg, #3 and #4 0.05-0.15 mg/kg bid, iv methylnaltrexone 0.05-0.15, bid mg/kg
[14] = iv methylnaltrexone, #1 0.45 mg/kg bid, #2 0.45 mg/kg, #3 and #4 0.05-0.15 mg/kg bid, iv methylnaltrexone 0.05-015, bid mg/kg
[15] = iv methylnaltrexone, #1 0.45 mg/kg bid, #2 0.45 mg/kg, #3 and #4 0.05-0.15 mg/kg bid, iv methylnaltrexone 0.45, bid mg/kg

C[N@+]1(CC2CC2)CC[C@]23c4c5ccc(O)c4O[C@H]2C(=O)CC[C@@]3(O)[C@H]1C5 [methylnaltrexone, N-methylnaltrexone bromide]
time to initial plasma levels after oral administration [1]: 5 to 10 min | oral-cecal transit time ([2]; 12 subjects, mean±SD, not significant vs baseline 104.6±31.1): 106.3 ± 39.8 min | prevention of morphine-induced changes in oral-cecal transit time ([2]; p<0.01 vs morphine alone): 97% | side effects ([3]; doses of 0.64 to 1.25 mg/kg): transient orthostatic hypotension | side effects ([3]; doses up to 0.32 mg/kg): did not cause side effects | Peak plasma level ([4]; Day 1, 11 subjects, range 30-774): 162 ± 237 ng/mL | percentage of intravenous dose excreted unchanged in urine from 0 to 4 hr ([4]; Day 1, mean±SD, range 9.6-39.9): 23.7±10.5% | Peak plasma level ([4]; Day 2, 11 subjects, range 33-658): 166 ± 177 ng/mL | percentage of intravenous dose excreted unchanged in urine from 0 to 4 hr ([4]; Day 2, mean±SD, range 13.2-73.6): 37.6±17.8% | side effects ([5]; Subject 1, 0.45 mg/kg iv, 7 days of administration): did not experience any significant side effects | abdominal cramping ([5]; Subject 1, 0.45 mg/kg iv, after each injection): mild abdominal cramping | signs of systemic withdrawal (lacrimation, diaphoresis, mydriasis, hallucinations) ([5]; Subject 2, single dose 0.45 mg/kg iv): no signs of systemic withdrawal | abdominal cramping ([5]; Subject 2, single dose 0.45 mg/kg iv over 1 min): severe abdominal cramping | abdominal cramping [5, 11]: mild abdominal cramping | side effects [5, 11]: No significant side effects were observed | Central opioid withdrawal [5, 12]: No | abdominal cramping [5, 12]: Severe | Central opioid withdrawal [5, 13]: No | abdominal cramping [5, 13]: Mild | Central opioid withdrawal [5, 14]: No | abdominal cramping [5, 14]: Mild | Central opioid withdrawal [5, 15]: No | abdominal cramping [5, 15]: Mild | methylnaltrexone dose received (infusion stopped at bowel movement) ([6]; Day 1, iv): 0.09 ± 0.10 mg/kg | methylnaltrexone dose received (infusion stopped at bowel movement) ([6]; Day 2, iv): 0.10 ± 0.10 mg/kg | Bowel movement Satisfaction ([6]; MNTX group, end of study, listed as MNTX): Very satisfied; also recorded: Somewhat satisfied | satisfaction with bowel movement activity at the end of the study ([6]; methylnaltrexone group): all 11 subjects were satisfied | subjects whose stool was soft to loose and in large quantity ([6]; methylnaltrexone group): over 90% | subjects who had a bowel movement ([7]; oral 0.3 mg/kg): 3 out of 4 | time to bowel movement after oral compound ([7]; oral 0.3 mg/kg, range 8-24 hr): 18.0 ± 8.7 h | subjects who had a bowel movement ([7]; oral 1.0 mg/kg): All subjects | time to bowel movement after oral compound ([7]; oral 1.0 mg/kg, range 3-24 hr): 12.3 ± 8.7 h | subjects who had a bowel movement ([7]; oral 3.0 mg/kg): All subjects | time to bowel movement after oral compound ([7]; oral 3.0 mg/kg, range 1.2-10 hr): 5.2 ± 4.5 h | oral-cecal transit time after methylnaltrexone, at the end of the study ([8]; Subject 1, 0.45 mg/kg iv bid): 90 min | oral-cecal transit time after methylnaltrexone, at the end of the study ([8]; Subject 3, 0.05-0.15 mg/kg iv bid): 60 min | oral-cecal transit time after methylnaltrexone, at the end of the study ([8]; Subject 4, 0.05-0.15 mg/kg iv bid): 60 min | abdominal cramping during and immediately after injection ([9]; all subjects of methylnaltrexone group, iv): mild to moderate abdominal cramping | change in blood pressure or heart rate from baseline ([9]; study drug infusion): No subject demonstrated any clinically significant change | effect on opioid-induced delay in oral-cecal transit time ([10]; healthy volunteers, acute single doses): effectively prevented opioid-induced delay in oral-cecal transit time | effect on analgesia ([10]; healthy volunteers): without affecting analgesia | Laxation response ([10]; normal opioid naive subjects): without any laxation response
